Reference: PubChem BioAssay AID248 (DTP/NCI, 2004)
Where “and” joins values, the source holds several entries; their conditions need not be identical. Equal entries are not always repeated. Toxic doses and inconclusive results are not listed.

Tested on: L1210 leukemia ip in BDF1 mice, survival T/C
Test: NCI In Vivo Anticancer Drug Screen. Data for tumor model L1210 Leukemia (intraperitoneal) in B6D2F1 (BDF1) mice
Settings: higher = longer survival
How it was run: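 Read-out is survival time, reported as the treated-group measurement over the vehicle-control measurement.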

[1] = endpoint: mean survival time, dose: 100.0 mg/kg/injection, schedule: Q04DX003 (ip), vehicle: Klucel (hydroxypropylcellulose) (HPC)
[2] = endpoint: mean survival time, dose: 200.0 mg/kg/injection, schedule: Q04DX003 (ip), vehicle: Klucel (hydroxypropylcellulose) (HPC)
[3] = endpoint: mean survival time, dose: 400.0 mg/kg/injection, schedule: Q04DX003 (ip), vehicle: Klucel (hydroxypropylcellulose) (HPC)
[4] = endpoint: mean survival time, dose: 50.0 mg/kg/injection, schedule: Q01DX009 (ip), vehicle: saline with Tween-80
[5] = endpoint: mean survival time, dose: 100.0 mg/kg/injection, schedule: Q04DX003 (ip), vehicle: saline with Tween-80
[6] = endpoint: mean survival time, dose: 200.0 mg/kg/injection, schedule: Q04DX003 (ip), vehicle: saline with Tween-80

SMILES: COc1cc2ccc(CC(=O)NCCc3ccc4c(c3)OCO4)cc2cc1OC
- T/C (endpoint: mean survival time, dose: 100.0 mg/kg/injection, schedule: Q01DX009 (ip), vehicle: Klucel (hydroxypropylcellulose) (HPC)): 97 % of control
- T/C [1]: 97 % of control
- T/C (endpoint: mean survival time, dose: 200.0 mg/kg/injection, schedule: Q01DX009 (ip), vehicle: Klucel (hydroxypropylcellulose) (HPC)): 90 % of control
- T/C [2]: 102 % of control
- T/C (endpoint: mean survival time, dose: 400.0 mg/kg/injection, schedule: Q01DX009 (ip), vehicle: Klucel (hydroxypropylcellulose) (HPC)): 93 % of control
- T/C [3]: 91 % of control

SMILES: O=NN(CCCl)C(=O)Nc1ccc(S(=O)(=O)c2ccc(NC(=O)N(CCCl)N=O)cc2)cc1
- T/C (endpoint: mean survival time, dose: 100.0 mg/kg/injection, schedule: Q01DX009 (ip), vehicle: carboxymethylcellulose (CMC)): 184 % of control
- T/C (endpoint: mean survival time, dose: 118.0 mg/kg/injection, schedule: Q01DX009 (ip), vehicle: carboxymethylcellulose (CMC)): 152 % of control
- T/C (endpoint: mean survival time, dose: 177.0 mg/kg/injection, schedule: Q01DX001 (ip), vehicle: carboxymethylcellulose (CMC)): 156 % of control
- T/C (endpoint: mean survival time, dose: 200.0 mg/kg/injection, schedule: Q01DX009 (ip), vehicle: carboxymethylcellulose (CMC)): 192 % of control
- T/C (endpoint: mean survival time, dose: 266.0 mg/kg/injection, schedule: Q01DX001 (ip), vehicle: carboxymethylcellulose (CMC)): 159 % of control
- T/C (endpoint: mean survival time, dose: 266.0 mg/kg/injection, schedule: Q01DX009 (ip), vehicle: carboxymethylcellulose (CMC)): 170 % of control
- T/C (endpoint: mean survival time, dose: 400.0 mg/kg/injection, schedule: Q01DX009 (ip), vehicle: carboxymethylcellulose (CMC)): 173 % of control and 186 % of control
- T/C (endpoint: mean survival time, dose: 600.0 mg/kg/injection, schedule: Q01DX001 (ip), vehicle: carboxymethylcellulose (CMC)): 161 % of control and 172 % of control

SMILES: CN(C)c1ccc(/C=C/c2nc3ccc(Cl)cc3[nH]2)cc1
- T/C [1]: 96 % of control
- T/C [2]: 103 % of control
- T/C [3]: 96 % of control

SMILES: CC1=CC2=C(C(=O)C1=O)C(C)CCC2C(C)C (stereo not drawn)
- T/C (endpoint: mean survival time, dose: 100.0 mg/kg/injection, schedule: Q01DX001 (ip), vehicle: saline): 98 % of control
- T/C (endpoint: mean survival time, dose: 200.0 mg/kg/injection, schedule: Q01DX001 (ip), vehicle: saline): 94 % of control

SMILES: O=C(CCCBr)Nc1ccc2ccccc2c1
- T/C [4]: 98 % of control
- T/C (endpoint: mean survival time, dose: 100.0 mg/kg/injection, schedule: Q01DX009 (ip), vehicle: saline with Tween-80): 95 % of control
- T/C (endpoint: mean survival time, dose: 200.0 mg/kg/injection, schedule: Q01DX009 (ip), vehicle: saline with Tween-80): 95 % of control

SMILES: OC1CC2CCC(C1)N2 (stereo not drawn)
- T/C (endpoint: mean survival time, dose: 75.0 mg/kg/injection, schedule: Q01DX001 (ip), vehicle: saline): 95 % of control
- T/C (endpoint: mean survival time, dose: 150.0 mg/kg/injection, schedule: Q01DX001 (ip), vehicle: saline): 91 % of control

SMILES: CC(C)=CCn1cnc2c1c(=O)n(C)c(=O)n2C
- T/C (endpoint: mean survival time, dose: 50.0 mg/kg/injection, schedule: Q04DX002 (ip), vehicle: Klucel (hydroxypropylcellulose) (HPC)): 100 % of control
- T/C (endpoint: mean survival time, dose: 100.0 mg/kg/injection, schedule: Q04DX002 (ip), vehicle: Klucel (hydroxypropylcellulose) (HPC)): 88 % of control
- T/C (endpoint: mean survival time, dose: 200.0 mg/kg/injection, schedule: Q04DX002 (ip), vehicle: Klucel (hydroxypropylcellulose) (HPC)): 96 % of control

SMILES: O=C(Nc1ccccc1F)c1ccc(C(=O)Nc2ccccc2F)cc1
- T/C (endpoint: mean survival time, dose: 12.5 mg/kg/injection, schedule: Q01DX009 (ip), vehicle: saline with Tween-80): 92 % of control
- T/C (endpoint: mean survival time, dose: 25.0 mg/kg/injection, schedule: Q01DX009 (ip), vehicle: saline with Tween-80): 86 % of control
- T/C [4]: 90 % of control
- T/C [5]: 90 % of control
- T/C [6]: 87 % of control

SMILES: O=C1NC(O)CCN1C1OC(CO)C(O)C1O (stereo not drawn)
- T/C (endpoint: mean survival time, dose: 25.0 mg/kg/injection, schedule: Q01DX009 (ip), vehicle: saline): 101 % of control
- T/C (endpoint: mean survival time, dose: 50.0 mg/kg/injection, schedule: Q01DX009 (ip), vehicle: saline): 113 % of control
- T/C (endpoint: mean survival time, dose: 50.0 mg/kg/injection, schedule: Q01DX015 (ip), vehicle: saline): 98 % of control
- T/C (endpoint: mean survival time, dose: 100.0 mg/kg/injection, schedule: Q01DX009 (ip), vehicle: saline): 95 % of control
- T/C (endpoint: mean survival time, dose: 100.0 mg/kg/injection, schedule: Q01DX015 (ip), vehicle: saline): 94 % of control
- T/C (endpoint: mean survival time, dose: 200.0 mg/kg/injection, schedule: Q01DX009 (ip), vehicle: saline): 110 % of control
- T/C (endpoint: mean survival time, dose: 400.0 mg/kg/injection, schedule: Q01DX009 (ip), vehicle: saline): 90 % of control
- T/C (endpoint: mean survival time, dose: 800.0 mg/kg/injection, schedule: Q01DX009 (ip), vehicle: saline): 95 % of control
- T/C (endpoint: median survival time, dose: 500.0 mg/kg/injection, schedule: Q01DX009 (ip), vehicle: saline): 102 % of control
- T/C (endpoint: median survival time, dose: 1000.0 mg/kg/injection, schedule: Q01DX009 (ip), vehicle: saline): 94 % of control
- T/C (endpoint: median survival time, dose: 2000.0 mg/kg/injection, schedule: Q01DX009 (ip), vehicle: saline): 93 % of control

SMILES: BrC1=C(Br)C2(Br)C(c3ccccc3)CC1(Br)C2(Br)Br (stereo not drawn)
- T/C (endpoint: mean survival time, dose: 100.0 mg/kg/injection, schedule: Q04DX003 (ip), vehicle: saline): 92 % of control
- T/C (endpoint: mean survival time, dose: 200.0 mg/kg/injection, schedule: Q04DX003 (ip), vehicle: saline): 106 % of control
- T/C (endpoint: mean survival time, dose: 400.0 mg/kg/injection, schedule: Q04DX003 (ip), vehicle: saline): 92 % of control

SMILES: CC(=O)Nc1ccccc1-c1ccc([N+](=O)[O-])cc1
- T/C [5]: 110 % of control
- T/C [6]: 101 % of control
- T/C (endpoint: mean survival time, dose: 400.0 mg/kg/injection, schedule: Q04DX003 (ip), vehicle: saline with Tween-80): 101 % of control

SMILES: CC(=O)C1CCCC1=O (stereo not drawn)
- T/C (endpoint: mean survival time, dose: 100.0 mg/kg/injection, schedule: Q01DX001 (ip), vehicle: acetone): 103 % of control
- T/C (endpoint: mean survival time, dose: 100.0 mg/kg/injection, schedule: Q04DX003 (ip), vehicle: acetone): 97 % of control
- T/C (endpoint: mean survival time, dose: 200.0 mg/kg/injection, schedule: Q01DX001 (ip), vehicle: acetone): 97 % of control
- T/C (endpoint: mean survival time, dose: 200.0 mg/kg/injection, schedule: Q04DX003 (ip), vehicle: acetone): 97 % of control
- T/C (endpoint: mean survival time, dose: 400.0 mg/kg/injection, schedule: Q01DX001 (ip), vehicle: acetone): 95 % of control
- T/C (endpoint: mean survival time, dose: 400.0 mg/kg/injection, schedule: Q04DX003 (ip), vehicle: acetone): 95 % of control

SMILES: Nc1nc(SCc2ccccc2)c2[nH]cnc2n1
- T/C (endpoint: mean survival time, dose: 4.0 mg/kg/injection, schedule: Q01DX Z (ip), vehicle: carboxymethylcellulose (CMC)): 124 % of control
- T/C (endpoint: mean survival time, dose: 5.0 mg/kg/injection, schedule: Q03DX Z (ip), vehicle: carboxymethylcellulose (CMC)): 92 % of control
- T/C (endpoint: mean survival time, dose: 8.0 mg/kg/injection, schedule: Q01DX010 (ip), vehicle: saline): 100 % of control
- T/C (endpoint: mean survival time, dose: 8.0 mg/kg/injection, schedule: Q01DX Z (oral), vehicle: carboxymethylcellulose (CMC)): 158 % of control
- T/C (endpoint: mean survival time, dose: 10.0 mg/kg/injection, schedule: Q01DX Z (ip), vehicle: carboxymethylcellulose (CMC)): 152 % of control
- T/C (endpoint: mean survival time, dose: 10.0 mg/kg/injection, schedule: Q03DX Z (ip), vehicle: carboxymethylcellulose (CMC)): 116 % of control
- T/C (endpoint: mean survival time, dose: 15.0 mg/kg/injection, schedule: Q03DX Z (ip), vehicle: carboxymethylcellulose (CMC)): 124 % of control
- T/C (endpoint: mean survival time, dose: 20.0 mg/kg/injection, schedule: Q01DX001 (ip), vehicle: carboxymethylcellulose (CMC)): 151 % of control
- T/C (endpoint: mean survival time, dose: 20.0 mg/kg/injection, schedule: Q03DX Z (ip), vehicle: carboxymethylcellulose (CMC)): 216 % of control
- T/C (endpoint: mean survival time, dose: 41.0 mg/kg/injection, schedule: Q01DX001 (ip), vehicle: carboxymethylcellulose (CMC)): 163 % of control
- T/C (endpoint: mean survival time, dose: 41.0 mg/kg/injection, schedule: Q03DX Z (ip), vehicle: carboxymethylcellulose (CMC)): 158 % of control
- T/C (endpoint: mean survival time, dose: 41.0 mg/kg/injection, schedule: Q07DX Z (ip), vehicle: carboxymethylcellulose (CMC)): 165 % of control
- T/C (endpoint: mean survival time, dose: 60.0 mg/kg/injection, schedule: Q01DX Z (ip), vehicle: carboxymethylcellulose (CMC)): 118 % of control
- T/C (endpoint: mean survival time, dose: 62.5 mg/kg/injection, schedule: Q01DX010 (ip), vehicle: saline): 108 % of control
- T/C (endpoint: mean survival time, dose: 64.0 mg/kg/injection, schedule: Q01DX Z (oral), vehicle: carboxymethylcellulose (CMC)): 124 % of control
- T/C (endpoint: mean survival time, dose: 82.0 mg/kg/injection, schedule: Q01DX001 (ip), vehicle: carboxymethylcellulose (CMC)): 157 % of control
- T/C (endpoint: mean survival time, dose: 82.0 mg/kg/injection, schedule: Q07DX Z (ip), vehicle: carboxymethylcellulose (CMC)): 168 % of control
- T/C (endpoint: mean survival time, dose: 86.0 mg/kg/injection, schedule: Q01DX001 (ip), vehicle: carboxymethylcellulose (CMC)): 163 % of control
- T/C (endpoint: mean survival time, dose: 125.0 mg/kg/injection, schedule: Q01DX010 (ip), vehicle: saline): 103 % of control
- T/C (endpoint: mean survival time, dose: 129.0 mg/kg/injection, schedule: Q01DX001 (ip), vehicle: carboxymethylcellulose (CMC)): 160 % of control
- T/C (endpoint: mean survival time, dose: 195.0 mg/kg/injection, schedule: Q01DX001 (ip), vehicle: carboxymethylcellulose (CMC)): 168 % of control and 181 % of control
- T/C (endpoint: mean survival time, dose: 292.0 mg/kg/injection, schedule: Q03DX Z (ip), vehicle: carboxymethylcellulose (CMC)): 101 % of control
- T/C (endpoint: mean survival time, dose: 292.0 mg/kg/injection, schedule: Q07DX Z (ip), vehicle: carboxymethylcellulose (CMC)): 114 % of control
